Reference: article PMC7377239, “Cardiovascular Effects of Polychlorinated Biphenyls and Their Major Metabolites” (Environmental Health Perspectives, 2020)
Counter-ions that a name gives are not always drawn. Like-named read-outs stand apart in the source and are kept apart here.

Tested on: iCell cardiomyocytes (human iPSC-derived cardiomyocytes)
Experiment: Intracellular Ca2+ flux / beating parameters in iCell cardiomyocytes (FLIPR tetra), 90 min or 24 h
Format: cell-based
Conditions: Homo sapiens, Cardiomyocyte, 0.00 µM = 100.00; for activity at 0.1 µM: 0.10 µM
Description: Details on cardiomyocyte cell culture are described in detail elsewhere ([Grimm et al. 2015b]; [Sirenko et al. 2013a]). Briefly, tissue-culture treated 384 well plates were gelatinized with 25μL per well of 0.1% (w/v) gelatin in water for 2 h at 37°C and 5% CO2 . Individual vials of cells were thawed for 4 min in a water bath maintained at 37°C. Thawed cells were resuspended in 10ml plating medium containing 1:500 (vol/vol) penicillin/streptomycin solution at room temperature (RT). Live cell counts for each cell suspension were determined by trypan blue staining and cells were further diluted to provide final cell densities of 2×10^5 viable cells/ml. Thus, 5,000 cells suspended in 25μL media were transferred per well after the gelatin solution had been discarded. Cell culture plates were rested for 30 min at RT before they were incubated for 48 h at 37°C and 5% CO2 . Then, a media exchange with 30μL of fresh maintenance medium containing 1:500 (vol/vol) penicillin/streptomycin solution was performed, and cell media were subsequently changed every 48 h for 12 d. On the experiment day, the medium was completely exchanged with either 25μL (for Ca^2+ flux assay) or 40μL (for imaging) of fresh medium.
Responses of iCell®-cardiomyocytes to drugs and chemicals were evaluated using intracellular Ca^2+ flux measurements ([Grimm et al. 2015b]; [Sirenko et al. 2013b]). For experiments, 20 mM stock solutions of PCBs and PCB metabolites were prepared in DMSO ( 200× ). Chemical working solutions ( 5× ) were prepared using cardiomyocyte maintenance medium and contained 2.5% (vol/vol) DMSO. These chemical master plates were prepared to include all chemicals in concentration–response (0.05, 0.5, 5, 50, and 500μM ). Negative controls included media-only and vehicle control (i.e., 0.5% vol/vol DMSO in cell culture media) wells. Positive assay controls were consistent with previously published reports ([Grimm et al. 2018]) and included TAB ( 50μM ) as a cytotoxic control, and isoproterenol ( 0.1–10μM ), propranolol ( 0.1–5 μM ), cisapride ( 0.01–1μM ), and doxorubicin ( 0.1–5μM ) as chemicals associated with specific effects on beating and ion flux. Each test chemical was screened in triplicate for each concentration.
Experiments started with the addition of 25μL of prewarmed 2× concentrated calcium dye reagent to sample wells containing 25μL maintenance media. Microplates were then acclimated for 2 h at 37°C. Following equilibration, cardiomyocyte sample wells were treated simultaneously by the addition of 12.5μL of prewarmed 5× chemical solution to iCell®-cardiomyocytes using the automated liquid handler in the FLIPR tetra (Molecular Devices). Treated cell cultures were incubated for either 90 min or 24 h. After the conclusion of the treatment period, the Ca^2+ flux was measured for 100 s at a frequency of 8 Hz using the integrated fluorescence plate reader in the FLIPR tetra (Molecular Devices) using an emission wavelength range of λemission=515–575 nm ( λexcitation=470–495 nm ). Additional instrument settings included exposure time per read of 0.05s, a gain of 2000, an excitation intensity of 30%, and an internal temperature of 37°C.
Ca^2+ flux data were processed in R studio (version 1.0.136, with R version 3.3.2; R Development Core Team) as described elsewhere ([Blanchette et al. 2019]; [Burnett et al. 2019]). Calculated quantitative metrics included the means and coefficients of variation (CV) of the peak height, which can be indicative of cytotoxicity, inhibition, or stimulation of beating. Means of peak frequency, an indicator of positive or negative […], and CV of peak spacing, an indicator of irregular beating, were also derived from Ca^2+ flux traces. Finally, the mean ratio of the decay over rise time was calculated. Increases in the decay/rise time ratio are reflective of delayed repolarization and are a measure for QT prolongation. […]

[1] = 1.5 h, read-out: cm.amp.avg.90min
[2] = 1.5 h, read-out: cm.amp.cv.90min
[3] = 1.5 h, read-out: cm.decay.rise.90min
[4] = 1.5 h, read-out: cm.spacing.cv.90min
[5] = 24 h, read-out: cm.amp.avg.24hrs
[6] = 24 h, read-out: cm.amp.cv.24hrs
[7] = 24 h, read-out: cm.decay.rise.24hrs
[8] = 24 h, read-out: cm.spacing.cv.24hrs

Q: How did the activity at 0.01 µM [1] turn out when `O=S(=O)(O)Oc1cc(Cl)ccc1-c1ccccc1` [2-yl PCB 3 sulfate] was run?
A: 107%

Q: And the activity at 0.01 µM [2]?
A: 102%

Q: And the activity at 0.01 µM (1.5 h, read-out: cm.bpm.90min)?
A: 99.1%

Q: What about the activity at 0.01 µM [3] of the same compound?
A: 97.6%

Q: What about the activity at 0.01 µM [4] of the same compound?
A: 134%

Q: And the activity at 0.1 µM [1]?
A: 107%

Q: And the activity at 0.1 µM [2]?
A: 90.3%

Q: What about the activity at 0.1 µM (1.5 h, read-out: cm.bpm.90min) of the same compound?
A: 97.8%

Q: And the activity at 0.1 µM [3]?
A: 94.2%

Q: And the activity at 0.1 µM [4]?
A: 100%

Q: What about the activity at 1 µM [1] of the same compound?
A: 102%

Q: And the activity at 1 µM [2]?
A: 102%

Q: What about the activity at 1 µM (1.5 h, read-out: cm.bpm.90min) of the same compound?
A: 96.5%

Q: What about the activity at 1 µM [3] of the same compound?
A: 99.3%

Q: What about the activity at 1 µM [4] of the same compound?
A: 99.6%

Q: What about the activity at 10 µM [1] of the same compound?
A: 106%

Q: What about the activity at 10 µM [2] of the same compound?
A: 107%

Q: What about the activity at 10 µM (1.5 h, read-out: cm.bpm.90min) of the same compound?
A: 96.5%

Q: What about the activity at 10 µM [3] of the same compound?
A: 97.2%

Q: And the activity at 10 µM [4]?
A: 90.8%

Q: And the activity at 100 µM [1]?
A: 114%

Q: And the activity at 100 µM [2]?
A: 117%

Q: What about the activity at 100 µM (1.5 h, read-out: cm.bpm.90min) of the same compound?
A: 84%

Q: What about the activity at 100 µM [3] of the same compound?
A: 100%

Q: And the activity at 100 µM [4]?
A: 99%

Q: And the activity at 0.01 µM [5]?
A: 117%

Q: What about the activity at 0.01 µM [6] of the same compound?
A: 119%

Q: And the activity at 0.01 µM (24 h, read-out: cm.bpm.24hrs)?
A: 111%

Q: What about the activity at 0.01 µM [7] of the same compound?
A: 86.8%

Q: What about the activity at 0.01 µM [8] of the same compound?
A: 109%

Q: What about the activity at 0.1 µM [5] of the same compound?
A: 63.4%

Q: And the activity at 0.1 µM [6]?
A: 37.6%

Q: And the activity at 0.1 µM (24 h, read-out: cm.bpm.24hrs)?
A: 53.5%

Q: And the activity at 0.1 µM [7]?
A: 43.6%

Q: What about the activity at 0.1 µM [8] of the same compound?
A: 50.5%

Q: What about the activity at 1 µM [5] of the same compound?
A: 0%

Q: And the activity at 1 µM [6]?
A: 0%

Q: And the activity at 1 µM (24 h, read-out: cm.bpm.24hrs)?
A: 0%

Q: What about the activity at 1 µM [7] of the same compound?
A: 0%

Q: What about the activity at 1 µM [8] of the same compound?
A: 0%

Q: And the activity at 10 µM [5]?
A: 121%

Q: And the activity at 10 µM [6]?
A: 81.4%

Q: What about the activity at 10 µM (24 h, read-out: cm.bpm.24hrs) of the same compound?
A: 92.6%

Q: And the activity at 10 µM [7]?
A: 98.1%

Q: And the activity at 10 µM [8]?
A: 91.4%

Q: And the activity at 100 µM [5]?
A: 97.7%

Q: And the activity at 100 µM [6]?
A: 85.5%

Q: What about the activity at 100 µM (24 h, read-out: cm.bpm.24hrs) of the same compound?
A: 77.3%

Q: What about the activity at 100 µM [7] of the same compound?
A: 106%

Q: And the activity at 100 µM [8]?
A: 86.6%

Q: Which results are given for `Oc1cccc(-c2ccc(Cl)cc2)c1` [3'-OH PCB3]?
A: activity at 0.01 µM [1]: 95.3%; activity at 0.01 µM [2]: 94.5%; activity at 0.01 µM (1.5 h, read-out: cm.bpm.90min): 97.8%; activity at 0.01 µM [3]: 96.7%; activity at 0.01 µM [4]: 101%; activity at 0.1 µM [1]: 100%; activity at 0.1 µM [2]: 80.2%; activity at 0.1 µM (1.5 h, read-out: cm.bpm.90min): 102%; activity at 0.1 µM [3]: 97.5%; activity at 0.1 µM [4]: 106%; activity at 1 µM [1]: 97.7%; activity at 1 µM [2]: 92.4%; activity at 1 µM (1.5 h, read-out: cm.bpm.90min): 105%; activity at 1 µM [3]: 102%; activity at 1 µM [4]: 98.3%; activity at 10 µM [1]: 90.4%; activity at 10 µM [2]: 103%; activity at 10 µM (1.5 h, read-out: cm.bpm.90min): 130%; activity at 10 µM [3]: 97.2%; activity at 10 µM [4]: 123%; activity at 100 µM [1]: 0%; activity at 100 µM [2]: 0%; activity at 100 µM (1.5 h, read-out: cm.bpm.90min): 0%; activity at 100 µM [3]: 0%; activity at 100 µM [4]: 0%; activity at 0.01 µM [5]: 82.3%; activity at 0.01 µM [6]: 114%; activity at 0.01 µM (24 h, read-out: cm.bpm.24hrs): 104%; activity at 0.01 µM [7]: 102%; activity at 0.01 µM [8]: 105%; activity at 0.1 µM [5]: 110%; activity at 0.1 µM [6]: 78.7%; activity at 0.1 µM (24 h, read-out: cm.bpm.24hrs): 97.4%; activity at 0.1 µM [7]: 94.2%; activity at 0.1 µM [8]: 100%; activity at 1 µM [5]: 88.2%; activity at 1 µM [6]: 107%; activity at 1 µM (24 h, read-out: cm.bpm.24hrs): 99.3%; activity at 1 µM [7]: 102%; activity at 1 µM [8]: 97%; activity at 10 µM [5]: 22%; activity at 10 µM [6]: 101%; activity at 10 µM (24 h, read-out: cm.bpm.24hrs): 56.3%; activity at 10 µM [7]: 44.1%; activity at 10 µM [8]: 54.5%; activity at 100 µM [5]: 0%; activity at 100 µM [6]: 0%; activity at 100 µM (24 h, read-out: cm.bpm.24hrs): 0%; activity at 100 µM [7]: 0%; activity at 100 µM [8]: 0%
